# Measured values: ChEMBL document CHEMBL1139328, “4-Fluoro-N-butylphenylacetamide (H6) inhibits cell growth via cell-cycle arrest and apoptosis in human cervical cancer cells” (2009)
# Activity calls are given as the source filed them. No cut-off for these calls is given here.
# How the values were obtained:
# HeLa [1] = experiment: Induction of apoptosis in human HeLa cells assessed as caspase 9 activation by fluorogenic substrate based assay after 48 hrs; format: functional, cell-based
# Ca-Ski [2] = experiment: Induction of apoptosis in human CaSki cells at 1 mM after 8 hrs by TUNEL/DAPI double staining; format: functional
# Ca-Ski [3] = experiment: Cell cycle arrest in human CaSki cells assessed as accumulation at G0/G1 phase after 48 hrs by flow cytometry; format: functional
# Ca-Ski [4] = experiment: Decrease in CDK1 protein expression in human CaSki cells at 1 mM by Western blot; format: functional, cell-based
# Ca-Ski [5] = experiment: Increase in Bax protein expression in human CaSki cells at 1 mM by Western blot; format: functional, cell-based
# Ca-Ski [6] = experiment: Decrease in cyclin B protein expression in human CaSki cells at 1 mM by Western blot; format: functional, cell-based
# HeLa [7] = experiment: Induction of cytosolic cytochrome c accumulation in human HeLa cells at 1 mM by SDS-PAGE; format: functional, cell-based; conditions: TDE = time-dependent effect
# HeLa [8] = experiment: Effect on Bcl-Xl protein expression in human HeLa cells at 1 mM by Western blot; format: functional, cell-based
# HeLa [9] = experiment: Cell cycle arrest in human HeLa cells assessed as accumulation at G0/G1 phase after 24 hrs by flow cytometry; format: functional
# Ca-Ski [10] = experiment: Cell cycle arrest in human CaSki cells assessed as accumulation at G0/G1 phase after 8 hrs by flow cytometry; format: functional
# Ca-Ski [11] = experiment: Effect on Bcl-Xl protein expression in human CaSki cells at 1 mM by Western blot; format: functional, cell-based
# Ca-Ski [12] = experiment: Induction of apoptosis in human CaSki cells assessed as chromatin condensation at 1 mM after 48 hrs by TUNEL/DAPI double staining; format: functional, cell-based
# Ca-Ski [13] = experiment: Induction of apoptosis in human CaSki cells assessed as caspase 3 activation by fluorogenic substrate based assay after 24 hrs; format: functional, cell-based
# Ca-Ski [14] = experiment: Cell cycle arrest in human CaSki cells assessed as accumulation at G2/M phase after 24 hrs by flow cytometry; format: functional
# Ca-Ski [15] = experiment: Induction of apoptosis in human CaSki cells assessed as proteolytic activation of caspase 3 at 1 mM by SDS-PAGE; format: functional, cell-based
# HeLa [16] = experiment: Cell cycle arrest in human HeLa cells assessed as accumulation at G0/G1 phase after 48 hrs by flow cytometry; format: functional
# Ca-Ski [17] = experiment: Cell cycle arrest in human CaSki cells assessed as accumulation at S phase after 48 hrs by flow cytometry; format: functional
# HeLa [18] = experiment: Cell cycle arrest in human HeLa cells assessed as accumulation at G2/M phase after 48 hrs by flow cytometry; format: functional
# HeLa [19] = experiment: Cell cycle arrest in human HeLa cells assessed as accumulation at S phase after 8 hrs by flow cytometry; format: functional
# HeLa [20] = experiment: Cell cycle arrest in human HeLa cells assessed as accumulation at G0/G1 phase after 8 hrs by flow cytometry; format: functional
# Ca-Ski [21] = experiment: Increase in p53 protein level in human CaSki cells at 1 mM after 24 hrs by Western blot; format: functional, cell-based
# HeLa [22] = experiment: Decrease in cyclin B protein expression in human HeLa cells at 1 mM by Western blot; format: functional, cell-based
# HeLa [23] = experiment: Decrease in Bcl2 protein expression in human HeLa cells at 1 mM by Western blot; format: functional, cell-based
# Ca-Ski [24] = experiment: Cytotoxicity against human CaSki cells by trypan blue exclusion method; format: functional, cell-based; conditions: TDE = time-dependent effect
# Ca-Ski [25] = experiment: Decrease in CDK2 protein expression in human CaSki cells at 1 mM by Western blot; format: functional, cell-based
# HeLa [26] = experiment: Decrease in CDK1 protein expression in human HeLa cells at 1 mM by Western blot; format: functional, cell-based
# HeLa [27] = experiment: Induction of apoptosis in human HeLa cells assessed as caspase 3 activation by fluorogenic substrate based assay after 24 hrs; format: functional, cell-based
# Ca-Ski [28] = experiment: Decrease in Bcl2 protein expression in human CaSki cells at 1 mM by Western blot; format: functional, cell-based
# Ca-Ski [29] = experiment: Induction of apoptosis in human CaSki cells at 1 mM after 24 hrs by TUNEL/DAPI double staining; format: functional
# Ca-Ski [30] = experiment: Increase in p53 protein level in human CaSki cells at 1 mM up to 48 hrs by Western blot; format: functional, cell-based
# HeLa [31] = experiment: Induction of apoptosis in human HeLa cells assessed as proteolytic activation of caspase 9 at 1 mM by SDS-PAGE; format: functional, cell-based
# Ca-Ski [32] = experiment: Induction of apoptosis in human CaSki cells assessed as caspase 9 activation by fluorogenic substrate based assay after 48 hrs; format: functional, cell-based
# Ca-Ski [33] = experiment: Induction of apoptosis in human CaSki cells assessed as nuclear DNA fragmentation at 1 mM after 48 hrs by TUNEL/DAPI double staining; format: functional, cell-based
# HeLa [34] = experiment: Cell cycle arrest in human HeLa cells assessed as accumulation at G2/M phase after 24 hrs by flow cytometry; format: functional
# HeLa [35] = experiment: Decrease in cyclin A protein expression in human HeLa cells at 1 mM by Western blot; format: functional, cell-based
# HeLa [36] = experiment: Cell cycle arrest in human HeLa cells assessed as accumulation at S phase after 48 hrs by flow cytometry; format: functional
# Ca-Ski [37] = experiment: Cell cycle arrest in human CaSki cells assessed as accumulation at S phase after 24 hrs by flow cytometry; format: functional
# Ca-Ski [38] = experiment: Decrease in cyclin A protein expression in human CaSki cells at 1 mM by Western blot; format: functional, cell-based
# HeLa [39] = experiment: Cytotoxicity against human HeLa cells by trypan blue exclusion method; format: functional, cell-based
# HeLa [40] = experiment: Cell cycle arrest in human HeLa cells assessed as accumulation at G2/M phase after 8 hrs by flow cytometry; format: functional
# HeLa [41] = experiment: Induction of apoptosis in human HeLa cells at 1 mM after 48 hrs by TUNEL/DAPI double staining; format: functional
# Ca-Ski [42] = experiment: Cell cycle arrest in human CaSki cells assessed as accumulation at S phase after 8 hrs by flow cytometry; format: functional
# Ca-Ski [43] = experiment: Induction of apoptosis in human CaSki cells at 1 mM after 48 hrs by TUNEL/DAPI double staining; format: functional
# Ca-Ski [44] = experiment: Induction of apoptosis in human CaSki cells assessed as proteolytic activation of caspase 9 at 1 mM by SDS-PAGE; format: functional, cell-based
# Ca-Ski [45] = experiment: Cell cycle arrest in human CaSki cells assessed as accumulation at G2/M phase after 8 hrs by flow cytometry; format: functional
# HeLa [46] = experiment: Increase in p53 protein level in human HeLa cells at 1 mM after 24 hrs by Western blot; format: functional, cell-based
# Ca-Ski [47] = experiment: Cell cycle arrest in human CaSki cells assessed as accumulation at G2/M phase after 48 hrs by flow cytometry; format: functional
# HeLa [48] = experiment: Induction of apoptosis in human HeLa cells assessed as nuclear DNA fragmentation at 1 mM after 48 hrs by TUNEL/DAPI double staining; format: functional, cell-based
# HeLa [49] = experiment: Induction of apoptosis in human HeLa cells assessed as proteolytic activation of caspase 3 at 1 mM by SDS-PAGE; format: functional, cell-based
# Ca-Ski [50] = experiment: Induction of cytosolic cytochrome c accumulation in human CaSki cells at 1 mM by SDS-PAGE; format: functional, cell-based; conditions: TDE = time-dependent effect
# HeLa [51] = experiment: Induction of apoptosis in human HeLa cells at 1 mM after 8 hrs by TUNEL/DAPI double staining; format: functional
# HeLa [52] = experiment: Decrease in CDK2 protein expression in human HeLa cells at 1 mM by Western blot; format: functional, cell-based
# Ca-Ski [53] = experiment: Cell cycle arrest in human CaSki cells assessed as accumulation at G0/G1 phase after 24 hrs by flow cytometry; format: functional
# HeLa [54] = experiment: Induction of apoptosis in human HeLa cells at 1 mM after 24 hrs by TUNEL/DAPI double staining; format: functional
# HeLa [55] = experiment: Cell cycle arrest in human HeLa cells assessed as accumulation at S phase after 24 hrs by flow cytometry; format: functional
# HeLa [56] = experiment: Induction of apoptosis in human HeLa cells assessed as chromatin condensation at 1 mM after 48 hrs by TUNEL/DAPI double staining; format: functional, cell-based
# HeLa [57] = experiment: Increase in Bax protein expression in human HeLa cells at 1 mM by Western blot; format: functional, cell-based
compound,measurement,setting,value
CCCCNC(=O)Cc1ccc(F)cc1,Activity,HeLa [1],Active
same,Activity,Ca-Ski [2],5.6%
same,Activity,Ca-Ski [3],51.5%
same,Activity,Ca-Ski [4],Active
same,Activity,Ca-Ski [5],Active
same,Activity,Ca-Ski [6],Active
same,Activity,HeLa [7],tde
same,Activity,HeLa [8],inactive
same,Activity,HeLa [9],42.6%
same,Activity,Ca-Ski [10],53.6%
same,Activity,Ca-Ski [11],inactive
same,Activity,Ca-Ski [12],Active
same,Activity,Ca-Ski [13],Active
same,Activity,Ca-Ski [14],26.5%
same,Activity,Ca-Ski [15],Active
same,Activity,HeLa [16],30.6%
same,Activity,Ca-Ski [17],19.9%
same,Activity,HeLa [18],46.7%
same,Activity,HeLa [19],46.9%
same,Activity,HeLa [20],31.2%
same,Activity,Ca-Ski [21],Active
same,Activity,HeLa [22],Active
same,Activity,HeLa [23],Active
same,Activity,Ca-Ski [24],tde
same,Activity,Ca-Ski [25],Active
same,Activity,HeLa [26],Active
same,Activity,HeLa [27],Active
same,Activity,Ca-Ski [28],Active
same,Activity,Ca-Ski [29],6%
same,Activity,Ca-Ski [30],Active
same,Activity,HeLa [31],Active
same,Activity,Ca-Ski [32],Active
same,Activity,Ca-Ski [33],Active
same,Activity,HeLa [34],28.5%
same,Activity,HeLa [35],Active
same,Activity,HeLa [36],22.7%
same,Activity,Ca-Ski [37],21%
same,Activity,Ca-Ski [38],Active
same,Activity,HeLa [39],Dose-dependent effect
same,Activity,HeLa [40],22.1%
same,Activity,HeLa [41],28.2%
same,Activity,Ca-Ski [42],27.7%
same,Activity,Ca-Ski [43],13.2%
same,Activity,Ca-Ski [44],Active
same,Activity,Ca-Ski [45],18.6%
same,Activity,HeLa [46],Active
same,Activity,Ca-Ski [47],28.6%
same,Activity,HeLa [48],Active
same,Activity,HeLa [49],Active
same,Activity,Ca-Ski [50],tde
same,Activity,HeLa [51],1.9%
same,Activity,HeLa [52],Active
same,Activity,Ca-Ski [53],52.7%
same,Activity,HeLa [54],23.6%
same,Activity,HeLa [55],28.9%
same,Activity,HeLa [56],Active
same,Activity,HeLa [57],Active
